Patent publication US6784283B2, “Peptide antibiotics” (The University of British Columbia, priority 2000, dated 2004)
Starred links: 1 amine or outer side, 2 acyl side, 3 side chain; linkers in the order of their positions; H or OH if unused. Non-standard residues stand in square brackets, D forms with d. Residues, ends and D or L forms follow the SMILES beside them. *: point of attachment. Pentanoyl(2S-OH,3S-Me) = CC[C@H](C)[C@H](O)C(=O)*; X1 = C/C=C(/N[*:1])C(=O)[*:2]; dOrn = NCCC[C@@H](N)C(=O)O; Valol = CC(C)[C@@H](CO)N*

Columns and labels:
[1] = tested on: Stenotrophomonas maltophilia; conditions: agar dilution
Method: (§1) A solution of Bogorol A was prepared by dissolving 3 mg of e compound in 300 μL of dimethylsulfoxide (DMSO). Serial two-fold dilutions were prepared in DMSO, and 50 μL of each dilution was mixed with 5 mL of melted Mueller-Hinton agar to achieve a final Bogorol A concentration range of 200 to 0.48 μg/ml. After the agar solidified, standardized suspensions of the target organisms were inoculated onto the surface of the agar using a multipoint inoculator. The standardized suspensions were prepared in tryptic soy broth adjusted to a 1.0 McFarland turbidity standard. The plates were incubated over night at 37° C. Activity of Bogorol A was indicated by a lack of growth of any target organism at its point of inoculation.

[2] = tested on: Berkholderia cepacia; conditions: other target organisms tested (Berkholderia cepacia); agar dilution
Method: as §1

[3] = tested on: Candida aibicans; conditions: other target organisms tested (Candida aibicans); agar dilution
Method: as §1

[4] = tested on: vancomycin-resistant Enterococcus faecalis; conditions: agar dilution
Method: as §1

[5] = tested on: Drug Resistant Pseudomonas aeruginosa; conditions: other target organisms tested (Drug Resistant Pseudomonas aeruginosa); agar dilution
Method: as §1

[6] = tested on: Escherichia coli; conditions: agar dilution
Method: as §1

[7] = tested on: methicillin-resistant Staphylococcus aureus; assay: agar dilution antimicrobial assay (MIC); type: cell-based
Method: as §1

SMILES: C/C=C(/NC(=O)[C@@H](O)[C@@H](C)CC)C(=O)N[C@@H](CC(C)C)C(=O)N[C@H](CCCN)C(=O)N[C@H](C(=O)N[C@H](C(=O)N[C@H](C(=O)N[C@H](CCCCN)C(=O)N[C@H](C(=O)N[C@@H](CC(C)C)C(=O)N[C@@H](CCCCN)C(=O)N[C@H](Cc1ccc(O)cc1)C(=O)N[C@H](CC(C)C)C(=O)N[C@H](CO)C(C)C)C(C)C)C(C)C)C(C)C)[C@@H](C)CC [Bogorol A] ({Pentanoyl(2S-OH,3S-Me)}-[X1]L[dOrn]IVV[dK]VLK[dY][dL]-Valol)
- antimicrobial activity (in words) [1]: moderately active
- antimicrobial activity (in words) [2]: essentially inactive
- antimicrobial activity (in words) [3]: essentially inactive
- antimicrobial activity (in words) [4]: active
- antimicrobial activity (in words) [5]: essentially inactive
- antimicrobial activity (in words) [6]: moderately active
- antimicrobial activity (in words) [7]: active
